Each block holds one molecule with its values, some of them ahead of it.
Assays:
[1] = biological target: recombinant RORγ Ligand Binding Domain (LBD) protein (Homo sapiens (Human), UniProt P51449); experiment: Radio-Ligand RORγ Binding Assay (Assay 1); settings: competition with 25-hydroxy [26,27-3H]-cholesterol, SPA; Table 9; read-out: RORγ Binding Ki Range*
Method in brief: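 Recombinant human RORγ ligand binding domain (6×His-GST fusion, 24 nM stock) competed with tritiated 25-hydroxycholesterol (8.6 nM stock) in HEPES buffer pH 7.4 with detergents and DTT; poly-Lys YSi SPA beads, room temperature, tritium SPA signal. Four-parameter IC50 from semi-log dilutions, normalised to DMSO and 10 μM T0901317, then Ki via KD equation.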

[2] = biological target: full-length RORγt in Jurkat cells (Homo sapiens (Human), UniProt P51449); experiment: RORγt 5xRORE Assay in Jurkat Cells (Assay 2); type: cell-based; settings: Nanoluc luciferase reporter, 16-18 hrs, Table 9, read-out: RORγt5X IC50 Range*
Chain of full-length RORγt in Jurkat cells (P51449 other isoform, or with tags, fused parts or gaps): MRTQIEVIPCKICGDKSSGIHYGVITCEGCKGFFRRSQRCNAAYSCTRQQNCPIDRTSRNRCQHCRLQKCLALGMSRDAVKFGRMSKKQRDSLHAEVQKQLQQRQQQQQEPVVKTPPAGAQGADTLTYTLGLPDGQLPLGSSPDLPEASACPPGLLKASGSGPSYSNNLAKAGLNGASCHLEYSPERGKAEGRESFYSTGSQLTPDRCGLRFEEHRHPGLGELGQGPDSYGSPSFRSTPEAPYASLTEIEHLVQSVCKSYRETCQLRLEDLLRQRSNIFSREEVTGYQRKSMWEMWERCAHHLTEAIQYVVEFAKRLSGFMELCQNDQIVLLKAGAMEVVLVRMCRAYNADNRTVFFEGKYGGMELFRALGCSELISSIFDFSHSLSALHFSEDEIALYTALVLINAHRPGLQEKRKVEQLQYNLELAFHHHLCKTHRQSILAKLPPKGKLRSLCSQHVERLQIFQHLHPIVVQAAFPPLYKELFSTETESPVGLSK
Method in brief: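 Inverse agonist activity was read as NanoGlo luminescence from conditioned medium after 16–18 h compound exposure (37 °C, 0.1% DMSO final). The cells were Jurkat, transiently transfected with RORγt and a secNluc reporter carrying five RORE repeats, seeded 80,000 per well in delipidated-serum RPMI.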

Chain of recombinant RORγ Ligand Binding Domain (LBD) protein (P51449 269-508): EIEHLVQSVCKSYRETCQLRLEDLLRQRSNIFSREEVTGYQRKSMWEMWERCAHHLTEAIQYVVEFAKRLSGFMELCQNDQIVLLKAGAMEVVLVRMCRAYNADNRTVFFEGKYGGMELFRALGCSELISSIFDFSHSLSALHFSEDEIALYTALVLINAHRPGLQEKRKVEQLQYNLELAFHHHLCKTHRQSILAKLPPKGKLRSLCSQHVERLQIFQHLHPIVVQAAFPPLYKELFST

- Ki [1]: < 100 nM
- IC50 [2]: < 100 nM
SMILES: CCS(=O)(=O)c1ccc(CC(=O)Nc2nc3c(s2)CN(Cc2ccc(Cl)cc2)[C@H]3C(C)C)c(Cl)c1

- Ki [1]: 100 to 1000 nM
- IC50 [2]: > 1000 nM
SMILES: CCS(=O)(=O)c1ccc(CC(=O)Nc2nc3c(s2)CN(Cc2cccc(S(C)(=O)=O)c2)[C@@H]3C(C)C)cc1

- Ki [1]: < 100 nM
- IC50 [2]: 100 to 1000 nM
SMILES: CCS(=O)(=O)c1ccc(CC(=O)Nc2nc3c(s2)CN(Cc2ccc(OC(F)(F)F)cc2)[C@@H]3C(C)C)cc1

- Ki [1]: < 100 nM
- IC50 [2]: > 1000 nM
SMILES: CCS(=O)(=O)c1ccc(CC(=O)Nc2nc3c(s2)CN(Cc2ccc(F)cc2)[C@@H]3C(C)C)cc1

- Ki [1]: < 100 nM
- IC50 [2]: > 1000 nM
SMILES: CCS(=O)(=O)c1ccc(CC(=O)Nc2nc3c(s2)CN(C[C@H]2C[C@H](C#N)C2)[C@H]3C(C)C)cc1 (relative stereo)

- Ki [1]: < 100 nM
- IC50 [2]: > 1000 nM
SMILES: CCS(=O)(=O)c1ccc(CC(=O)Nc2nc3c(s2)CN(C[C@H]2CC[C@@H](C(F)(F)F)N(C)C2)[C@H]3C(C)C)cc1 (relative stereo)

- Ki [1]: < 100 nM
- IC50 [2]: > 1000 nM
SMILES: CCS(=O)(=O)c1ccc(CC(=O)Nc2nc3c(s2)CN(C[C@H]2CCCCO2)[C@H]3C(C)C)cc1 (relative stereo)

- Ki [1]: < 100 nM
- IC50 [2]: > 1000 nM
SMILES: CCS(=O)(=O)c1ccc(CNC(=O)c2nc3c(s2)CN(C[C@H]2CC[C@@H](C(F)(F)F)CC2)[C@H]3C(C)C)cc1 (relative stereo)

- Ki [1]: < 100 nM
- IC50 [2]: > 1000 nM
SMILES: CCS(=O)(=O)c1ccc(CC(=O)Nc2nc3c(s2)CN(C[C@@H]2CCCCO2)[C@H]3C(C)C)cc1 (relative stereo)

- Ki [1]: < 100 nM
- IC50 [2]: 100 to 1000 nM
SMILES: CCS(=O)(=O)c1ccc(CNC(=O)c2nc3c(s2)CN(C[C@H]2CC[C@H](C(F)(F)F)CC2)[C@H]3C(C)C)cc1 (relative stereo)

- Ki [1]: < 100 nM
- IC50 [2]: 100 to 1000 nM
SMILES: CCS(=O)(=O)c1ccc(CNC(=O)c2nc3c(s2)CN(C[C@H]2CN(C(=O)OC(C)(C)C)CCO2)[C@H]3C(C)C)cc1 (relative stereo)

- Ki [1]: < 100 nM
- IC50 [2]: > 1000 nM
SMILES: CCS(=O)(=O)c1ccc(CC(=O)Nc2nc3c(s2)CN(C[C@H]2CC[C@](C)(C#N)CC2)[C@H]3C(C)C)nc1 (single isomer, unassigned)

- Ki [1]: < 100 nM
- IC50 [2]: > 1000 nM
SMILES: CCS(=O)(=O)c1ccc(CC(=O)Nc2nc3c(s2)CN(C[C@H]2CC[C@H](C(F)(F)F)N(C4CC4)C2)[C@H]3C(C)C)cc1 (single isomer, unassigned)

- Ki [1]: < 100 nM
- IC50 [2]: < 100 nM
SMILES: CCS(=O)(=O)c1ccc(CC(=O)Nc2nc3c(s2)CN(C[C@H]2CC[C@@](O)(C(F)(F)F)CC2)[C@H]3C(C)C)cc1 (single isomer, unassigned)

- Ki [1]: < 100 nM
- IC50 [2]: < 100 nM
SMILES: CCS(=O)(=O)c1ccc(CC(=O)Nc2nc3c(s2)CN(C[C@H]2CC[C@](O)(C(F)(F)F)CC2)[C@H]3C(C)C)cc1 (single isomer, unassigned)

- Ki [1]: < 100 nM
- IC50 [2]: < 100 nM
SMILES: CC(C)[C@H]1c2nc(NC(=O)Cc3ccc(S(C)(=O)=O)cc3)sc2CN1[C@@H](C)c1ccc(C#N)c(F)c1 (single isomer, unassigned)

- Ki [1]: < 100 nM
- IC50 [2]: 100 to 1000 nM
SMILES: CC(C)[C@H]1c2nc(NC(=O)Cc3ccc(S(C)(=O)=O)cc3)sc2CN1[C@H](C)c1ccc(Cl)cn1 (single isomer, unassigned)

Second part, the molecule before the results:

SMILES: CCS(=O)(=O)c1ccc(CC(=O)Nc2nc3c(s2)CN(Cc2ccc(=O)n(C4CC4)c2)[C@H]3C(C)C)cc1
- Ki [1]: < 100 nM
- IC50 [2]: 100 to 1000 nM

SMILES: CCS(=O)(=O)c1ccc(CC(=O)Nc2nc3c(s2)CN(c2nc4cccnc4s2)[C@H]3C(C)C)cc1
- Ki [1]: < 100 nM
- IC50 [2]: > 1000 nM

SMILES: CCS(=O)(=O)c1ccc(CC(=O)Nc2nc3c(s2)CN(Cc2ccc(Cl)cc2)[C@H]3C(C)C)c(C#N)c1
- Ki [1]: < 100 nM
- IC50 [2]: < 100 nM

SMILES: CCS(=O)(=O)c1ccc(CC(=O)Nc2nc3c(s2)CN(CC2CCS(=O)(=O)CC2)[C@H]3C(C)C)cc1
- Ki [1]: < 100 nM
- IC50 [2]: > 1000 nM

SMILES: CCS(=O)(=O)c1ccc(CNC(=O)c2nc3c(s2)CN(C[C@H]2CC[C@H](C(F)(F)F)CC2)[C@H]3C(C)C)nc1
- Ki [1]: 100 to 1000 nM
- IC50 [2]: 100 to 1000 nM

SMILES: CCS(=O)(=O)c1ccc(CC(=O)Nc2nc3c(s2)CN(CC2CN(CC(F)(F)F)C2)[C@H]3C(C)C)cc1
- Ki [1]: < 100 nM
- IC50 [2]: 100 to 1000 nM

SMILES: CCS(=O)(=O)c1ccc(CC(=O)Nc2nc3c(s2)CN(Cc2ccc(=O)n(C(F)F)c2)[C@H]3C(C)C)cc1
- Ki [1]: < 100 nM
- IC50 [2]: > 1000 nM

SMILES: CCS(=O)(=O)c1ccc(CC(=O)Nc2nc3c(s2)CN(C(C)c2cccc(C(F)(F)F)c2)[C@@H]3C(C)C)cc1 (stereo partly drawn)
- Ki [1]: < 100 nM
- IC50 [2]: > 1000 nM

SMILES: CCS(=O)(=O)c1ccc(CC(=O)Nc2nc3c(s2)CN(C(C)c2ccc(F)cc2)[C@@H]3C(C)C)cc1 (stereo partly drawn)
- Ki [1]: < 100 nM
- IC50 [2]: > 1000 nM

SMILES: CCS(=O)(=O)c1ccc(CC(=O)Nc2nc3c(s2)CN(Cc2cc(C(F)(F)F)cc(C(F)(F)F)c2)[C@@H]3C(C)C)cc1
- Ki [1]: < 100 nM
- IC50 [2]: > 1000 nM

SMILES: CCS(=O)(=O)c1ccc(CC(=O)Nc2nc3c(s2)CN(Cc2cc(OC)cc(OC)c2)[C@@H]3C(C)C)cc1
- Ki [1]: < 100 nM
- IC50 [2]: > 1000 nM

SMILES: CCS(=O)(=O)c1ccc(CC(=O)Nc2nc3c(s2)CN(Cc2cc(Cl)ccc2Cl)[C@@H]3C(C)C)cc1
- Ki [1]: < 100 nM
- IC50 [2]: > 1000 nM

SMILES: CCS(=O)(=O)c1ccc(CC(=O)Nc2nc3c(s2)CN(Cc2ccc(C(F)(F)F)c(Cl)c2)[C@@H]3C(C)C)cc1
- Ki [1]: < 100 nM
- IC50 [2]: 100 to 1000 nM

SMILES: CCS(=O)(=O)c1ccc(CC(=O)Nc2nc3c(s2)CN(Cc2ccc(OC)cc2)[C@@H]3C(C)C)cc1
- Ki [1]: < 100 nM
- IC50 [2]: > 1000 nM

SMILES: CCS(=O)(=O)c1ccc(CC(=O)Nc2nc3c(s2)CN(Cc2cccc(C(F)(F)F)c2)[C@@H]3C(C)C)cc1
- Ki [1]: < 100 nM
- IC50 [2]: > 1000 nM

SMILES: Cc1cc(C(F)(F)F)nc(N2Cc3sc(NC(=O)Cc4ccc(S(C)(=O)=O)cc4)nc3[C@H]2C(C)C)n1
- Ki [1]: 100 to 1000 nM
- IC50 [2]: > 1000 nM

SMILES: CCS(=O)(=O)c1ccc(CC(=O)Nc2nc3c(s2)CN(c2nc(C)cc(C(F)(F)F)n2)[C@@H]3C(C)C)cc1
- Ki [1]: < 100 nM
- IC50 [2]: > 1000 nM

SMILES: CCS(=O)(=O)c1ccc(CC(=O)Nc2nc3c(s2)CN(C[C@@H]2CC[C@H](C(F)(F)F)OC2)[C@H]3C(C)C)cc1 (relative stereo)
- Ki [1]: < 100 nM
- IC50 [2]: > 1000 nM

SMILES: CCS(=O)(=O)c1ccc(CC(=O)Nc2nc3c(s2)CN([C@H]2COc4cc(Cl)ccc42)[C@H]3C(C)C)cc1 (relative stereo)
- Ki [1]: < 100 nM
- IC50 [2]: < 100 nM

SMILES: CCS(=O)(=O)c1ccc(CC(=O)Nc2nc3c(s2)CN(C[C@@H]2CC[C@H](C(F)(F)F)N(C)C2)[C@H]3C(C)C)cc1 (relative stereo)
- Ki [1]: < 100 nM
- IC50 [2]: > 1000 nM

SMILES: CCS(=O)(=O)c1ccc(CC(=O)Nc2nc3c(s2)CN(C[C@H]2CC[C@@](C)(C#N)CC2)[C@H]3C(C)C)nc1 (single isomer, unassigned)
- Ki [1]: < 100 nM
- IC50 [2]: 100 to 1000 nM

SMILES: CCS(=O)(=O)c1ccc(CC(=O)Nc2nc3c(s2)CN(C[C@@H]2CC[C@H](C(F)(F)F)N(C4CC4)C2)[C@H]3C(C)C)cc1 (single isomer, unassigned)
- Ki [1]: < 100 nM
- IC50 [2]: > 1000 nM

SMILES: CCS(=O)(=O)c1ccc(CC(=O)Nc2nc3c(s2)CN(C[C@H]2CC[C@@H](C(F)(F)F)N(C4CC4)C2)[C@H]3C(C)C)cc1 (single isomer, unassigned)
- Ki [1]: < 100 nM
- IC50 [2]: > 1000 nM

SMILES: CCS(=O)(=O)c1ccc(CC(=O)Nc2nc3c(s2)CN(C[C@@H]2CC[C@@H](C(F)(F)F)N(C4CC4)C2)[C@H]3C(C)C)cc1 (single isomer, unassigned)
- Ki [1]: < 100 nM
- IC50 [2]: > 1000 nM

SMILES: CCS(=O)(=O)c1ccc(CC(=O)Nc2nc3c(s2)CN(C[C@H]2CC[C@](C)(OC)CC2)[C@H]3C(C)C)nc1 (single isomer, unassigned)
- Ki [1]: < 100 nM
- IC50 [2]: < 100 nM

SMILES: CCS(=O)(=O)c1ccc(CC(=O)Nc2nc3c(s2)CN([C@@H](C)c2c(F)cc(Cl)cc2F)[C@H]3C(C)C)cc1 (single isomer, unassigned)
- Ki [1]: < 100 nM
- IC50 [2]: < 100 nM

SMILES: CCS(=O)(=O)c1ccc(CC(=O)Nc2nc3c(s2)CN(C[C@@H]2CCCOC2)[C@H]3C(C)C)cc1 (single isomer, unassigned)
- Ki [1]: < 100 nM
- IC50 [2]: > 1000 nM

SMILES: CCS(=O)(=O)c1ccc(CC(=O)Nc2nc3c(s2)CN(C[C@H]2CCCOC2)[C@H]3C(C)C)cc1 (single isomer, unassigned)
- Ki [1]: < 100 nM
- IC50 [2]: > 1000 nM

SMILES: CCS(=O)(=O)c1ccc(CC(=O)Nc2nc3c(s2)CN(C[C@H]2CC[C@H](C(F)(F)F)CC2)[C@H]3C(C)C)nc1 (single isomer, unassigned)
- Ki [1]: < 100 nM
- IC50 [2]: < 100 nM

SMILES: CCS(=O)(=O)c1ccc(CC(=O)Nc2nc3c(s2)CN(C[C@H]2CC[C@@H](C(F)(F)F)N(C)C2)C3C(C)C)cc1 (single isomer, unassigned)
- Ki [1]: < 100 nM
- IC50 [2]: > 1000 nM

SMILES: CCS(=O)(=O)c1ccc(CC(=O)Nc2nc3c(s2)CN(C[C@H]2CC[C@@H](C(=O)OC)CC2)[C@H]3C(C)C)cc1 (single isomer, unassigned)
- Ki [1]: < 100 nM
- IC50 [2]: > 1000 nM

SMILES: CC(C)[C@H]1c2nc(NC(=O)Cc3ccc(S(C)(=O)=O)cc3)sc2CN1[C@H](C)c1ccc(C(F)(F)F)nc1 (single isomer, unassigned)
- Ki [1]: < 100 nM
- IC50 [2]: < 100 nM

SMILES: CC(C)[C@H]1c2nc(NC(=O)Cc3ccc(S(C)(=O)=O)cc3)sc2CN1[C@@H](C)c1ccc(C(F)(F)F)nc1 (single isomer, unassigned)
- Ki [1]: < 100 nM
- IC50 [2]: < 100 nM

SMILES: CCS(=O)(=O)c1ccc(CC(=O)Nc2nc3c(s2)CN([C@H](C)c2ccc(C#N)cn2)[C@H]3C(C)C)cc1 (single isomer, unassigned)
- Ki [1]: < 100 nM
- IC50 [2]: < 100 nM

— patent US9868748B2, “Thiazolopyrrolidine inhibitors of ROR- γ” (Vitae Pharmaceuticals, Inc., priority 2013, dated 2018)
